In US6664224B2, “Quaternary ammonium salt and process for the preparation thereof” (priority 2000, dated 2003):

Key:
[1] = tested on: Bacillus substilis ATCC 6633; experiment: Minimum bactericidal concentration (MBC) against bacteria; type: cell-based, Bacillus subtilis; settings: contact 30° C. 30 minutes, culture 37° C. 24 hours
Experimental: (§1) A bacteria solution in the initial stage of logarithmic productive phase which had been adjusted with a nutrient broth according to an ordinary sterilized water dilution method such that the concentration of bacterial suspension reached 10^6 cell/ml was brought into contact with chemical solutions having concentrations which vary stepwise at a temperature of 30° C. for 30 minutes, and then transplanted to a nutrient broth where it was then allowed to stand at a temperature of 37° C. for 24 hours for culture. The nutrient broth was then examined to see if the proliferation of bacteria occurred. Thus, MBC was determined.
(§2) Five kinds of gram-negative bacteria and four kinds of gram-positive bacteria were used as sample bacteria.
(§3) BAMP-6 (Example 12), BAMD-6,8 (Example 13), BAMT-6 (Example 17) and benzalkonium chloride (Comparative Example 1) were determined for MBC value against 5 kinds of gram-negative bacteria and 4 kinds of gram-positive bacteria in the same manner as in Test Example 1.

rat = experiment: Oral toxicity test on rat (LD50); type: in vivo
Experimental: The quaternary ammonium salt of the invention is a compound having an extremely high safety, i.e., LD50 (rat) of not smaller than 2,000 mg/kg in oral toxicity test on rat.
The sample 4BAMP-6C thus obtained was then determined for oral toxicity (LD50: rat). The results were greater than 2,000 mg/kg.

Erythrocyte = experiment: Minimum hemolytic activity concentration against erythrocyte; type: cell-based; settings: human erythrocyte, 37° C. 1 hour, O.D.540, 50% hemolysis
Experimental: Human blood was collected. The sample blood was then mixed with the equal amount of alsebar solution (glucose: 2.05 g; NaCl: 0.42 g; sodium citrate: 0.8 g; citric acid: 0.55 g; pH: 6.1). The mixture was then stored at a temperature of 4° C. Shortly before used for experiment, the alsebar stored blood was subjected to centrifugal separation. Thus, the supernatant liquid and the leukocyte layer on the erythrocyte were removed. To the erythrocyte was then added PBS in an amount of […] that of the erythrocyte to obtain a 50% erythrocyte. 10 μl of the 50% erythrocyte was then mixed with 990 μl of each of chemicals which had been diluted with PBS in amounts varying stepwise. The erythrocyte was acted upon by the chemical at a temperature of 37° C. for 1 hour. The mixture was then subjected to centrifugal separation. The supernatant liquid was collected for the measurement of the optical density at 540 nm (O.D.540). Separately, the foregoing procedure was followed except that no chemicals were used to prepare a 0% hemolytic control. The foregoing procedure was followed except that Milliq water was used instead of PBS to prepare a 100% hemolytic control. For the minimum hemolytic activity concentration of chemical, the minimum concentration at which the hemolytic concentration is […] was determined.

Proteus rettgeri NIT 96 = experiment: Minimum bactericidal concentration (MBC) against bacteria; type: cell-based; settings: contact 30° C. 30 minutes, culture 37° C. 24 hours
Experimental: as §1, §2, §3

[2] = tested on: Pseudomonas aeruginosa ATCC 27583; experiment: as above; type: cell-based; settings: contact 30° C. 30 minutes, culture 37° C. 24 hours
Experimental: as §1, §2, §3

[3] = tested on: Escherichia coli K12 OUT 8401; experiment: as above; type: cell-based; settings: contact 30° C. 30 minutes, culture 37° C. 24 hours
Experimental: as §1, §2, §3

[4] = tested on: Bacillus subtilis IFO 3134; experiment: as above; type: cell-based; settings: contact 30° C. 30 minutes, culture 37° C. 24 hours
Experimental: as §1, §2, §3

[5] = tested on: Klebsiella pneumoniae ATCC 13883; experiment: as above; type: cell-based; settings: contact 30° C. 30 minutes, culture 37° C. 24 hours
Experimental: as §1, §2, §3

Bacillus cereus IFO 3001 = experiment: as above; type: cell-based; settings: contact 30° C. 30 minutes, culture 37° C. 24 hours
Experimental: as §1, §2, §3

[6] = tested on: Escherichia coli K12 W 3110; experiment: as above; type: cell-based; settings: contact 30° C. 30 minutes, culture 37° C. 24 hours
Experimental: as §1, §2, §3

[7] = tested on: Staphylococcus aureus IFO 12732; experiment: as above; type: cell-based; settings: contact 30° C. 30 minutes, culture 37° C. 24 hours
Experimental: as §1, §2, §3

[8] = tested on: Escherichia coli K12 W 3110; experiment: Minimum development inhibiting concentration (MIC) against bacteria, broth dilution method; type: cell-based; settings: 37° C. 24 hours
Experimental: A bacteria solution in stationary state which had been adjusted with a nutrient broth according to an ordinary broth dilution method such that the concentration of bacterial suspension reached 10^6 cell/ml was added to chemical solutions having concentrations which vary stepwise where it was then allowed to stand at a temperature of 37° C. for 24 hours for culture. The bacteria solution was then examined to see if the proliferation of bacteria occurred. Thus, MIC was determined.
Escherichia coli K12 W 3110 was used as a sample bacterium. Compounds obtained in Examples 1 to 9 and benzalkonium chloride prepared in Comparative Example 1 were used as test samples.
The compounds obtained in Examples 10 to 19 and benzalkonium chloride were determined for MIC value against Escherichia coli K12 W 3110 in the same manner as in Test Example 3.

[9] = tested on: Escherichia coli K12 W 3110; experiment: MIC by agar plate dilution method; type: cell-based; settings: E. coli, 37° C. 24 hours
Experimental: (§4) MIC value was determined by an agar plate dilution method according to the Law of Japanese Society of Chemotherapy. In some detail, a bacteria solution in stationary state which had been adjusted with a nutrient broth such that the concentration of bacterial suspension reached 10^6 cell/ml was added to agar culture media containing chemical solutions having concentrations which vary in two stages where it was then allowed to stand at a temperature of 37° C. for 24 hours for culture. The bacteria solution was then examined to see if the proliferation of bacteria occurred. Thus, MIC was determined.
(§5) The following three kinds of bacteria were used as sample bacteria:
Escherichia coliK12 W 3110 (E. coli);

[10] = tested on: Pseudomonas aeruginosa ATCC27583; experiment: MIC by agar plate dilution method; type: cell-based; settings: P. aeruginosa, 37° C. 24 hours
Experimental: as §4, §5
Pseudomonas aeruginosa ATCC27583 (P. auruginosa); and […]

[11] = tested on: Aspergillus niger IFO 6431; experiment: Minimum development inhibiting concentration (MIC) against fungi; type: cell-based; settings: A. niger; spore solution, 27° C. 1 week
Experimental: (§6) A sample fungus which had been pre-cultured was diluted with a wetting agent-containing sterilized water according to an ordinary broth dilution method to prepare a spore solution. 1 ml of the spore solution was then mixed with 1 ml of each of chemical solutions having concentrations which vary stepwise. The mixture was then cultured at a temperature of 27° C. in an incubator for 1 week. The culture was then examined for turbidity to see if the proliferation of fungus occurred. The minimum concentration at which no turbidity occurs was defined to be MIC.
(§7) Aspergillus niger IFO 6431 (A. niger) and Candida albicans ATCC10231 (C. albicans) were used as sample microorganisms.

[12] = tested on: Candida albicans ATCC10231; experiment: as above; type: cell-based; settings: C. albicans; spore solution, 27° C. 1 week
Experimental: as §6, §7

[13] = tested on: Staphylococcus aureus IFO 12732; experiment: MIC by agar plate dilution method; type: cell-based; settings: S. aureus, 37° C. 24 hours
Experimental: as §4, §5
Staphylococcus aureus IFO 12732 (S. aureus)

Question: Which MBC [1] does the source give for “1,4-bis(N,N-dihexyl-N-methylammoniomethyl)-2,3,5,6-tetramethylphenylene dichloride [BAMD-6]” here?
Answer: Its MBC is less than 2 ppm.

Question: And the “oral toxicity LD50” value (rat)?
Answer: Its value is “greater than 2,000 mg/kg”.

Question: And the “Minimum hemolytic activity concentration Erythrocyte” value (Erythrocyte)?
Answer: Its value is 400 ppm.

Question: What about the MBC (Proteus rettgeri NIT 96) of the same substance?
Answer: The MBC was less than 2 ppm.

Question: And the MBC [2]?
Answer: The MBC was 4 ppm.

Question: What about the MBC [3] of the same substance?
Answer: Its MBC is less than 2 ppm.

Question: What about the MBC [4] of the same substance?
Answer: Its MBC is less than 2 ppm.

Question: What about the MBC [5] of the same substance?
Answer: The MBC was less than 2 ppm.

Question: And the MBC (Bacillus cereus IFO 3001)?
Answer: The MBC was less than 2 ppm.

Question: What about the MBC [6] of the same substance?
Answer: The MBC was 4 ppm.

Question: What about the MBC [7] of the same substance?
Answer: Its MBC is less than 2 ppm.

Question: What about the “MIC Escherichia coli K12 W 3110” value [8] of the same substance?
Answer: The value was 1 ppm.

Question: Which MBC [1] does the source give for “1,4-bis(N,N-dihexyl-N-methylammoniomethyl)phenylene di-p-toluenesulfonate [Example 4BAMP-6S]” here?
Answer: Its MBC is less than 2 ppm.

Question: What about the “oral toxicity LD50” value (rat) of the same substance?
Answer: The value was “greater than 2,000 mg/kg”.

Question: And the MBC (Proteus rettgeri NIT 96)?
Answer: The MBC was less than 2 ppm.

Question: What about the MBC [2] of the same substance?
Answer: Its MBC is 8 ppm.

Question: What about the MBC [3] of the same substance?
Answer: Its MBC is 4 ppm.

Question: And the MBC [4]?
Answer: The MBC was less than 2 ppm.

Question: And the MBC [5]?
Answer: Its MBC is less than 2 ppm.

Question: What about the MBC (Bacillus cereus IFO 3001) of the same substance?
Answer: The MBC was 4 ppm.

Question: And the MBC [6]?
Answer: The MBC was 8 ppm.

Question: What about the MBC [7] of the same substance?
Answer: Its MBC is less than 2 ppm.

Question: What about the “MIC Escherichia coli K12 W 3110” value [8] of the same substance?
Answer: The value was 2 ppm.

Question: How did the MIC [9] turn out when “1,4-bis(N,N-dipentyl-N-methylammoniomethyl)phenylene dichloride [Example 4BAMP-5C]” was run?
Answer: Its MIC is 16 ppm.

Question: And the MIC [10]?
Answer: Its MIC is 4 ppm.

Question: And the MIC [11]?
Answer: The MIC was 16 ppm.

Question: And the MIC [12]?
Answer: Its MIC is 8 ppm.

Question: What about the MIC [13] of the same substance?
Answer: The MIC was less than 2 ppm.

Question: What about the “Minimum hemolytic activity concentration Erythrocyte” value (Erythrocyte) of the same substance?
Answer: Its value is 1,600 ppm.
